Data set [1] is described as follows: Aqueous solubility by nephelometry. It counts as physicochemical. To be noted: for solubility: buffer, pH 7.4, aqueous buffer, kinetic from dmso stock.
Data set [2] is described as follows: Pharmacokinetic study in rat, plasma concentration after dosing. Format: in vivo, Sprague-Dawley rat. To be noted: for AUC(0-inf) / AUC (0-t) / Cmax / Tmax / half-life / AUC (0-∞) / T½: suspension in PEG200/0.5% methylcellulose (10/90); for half-life: read-out: T½ (converted); for dose proportionality: range of 10 mg/kg to 50 mg/kg. The procedure:
Preliminary pharmacokinetic (PK) studies in the Sprague-Dawley rat compared AS-136a with compounds 2k and 2o following p.o. dosing by oral gavage at 10 mg/kg and 50 mg/kg in a PEG200/0.5% methylcellulose (10/90) vehicle (n=4/group).
The data from the preliminary pharmacokinetic studies using the 6-hour time point are reported for comparison purposes. […] On the basis of its excellent in vitro potency, good solubility and pharmacokinetic profile, compound 2o was chosen for further bioavailability evaluation.

In data set [3] the test system is MV-Alaska. The experiment in a line: Viral CPE-reduction assay (MeV-Alaska in Vero-SLAM cells, crystal violet). The conditions noted are these: Measles morbillivirus. It counts as cell-based, Measles virus (MeV). The protocol:
Methods for evaluating viral activity are provided for in Yoon et al., J Biomol Screen., 2008, 13(7): 591-608 and Krumm et al., PLoS ONE, 2011, 6(5), e20069, both hereby incorporated by reference in their entirety. In certain instances, Vero-SLAM cells were infected with MeV-Alaska in four replicates per compound concentration in a 96-well plate format at an MOI of 0.4 pfu/cell in the presence of the inhibitor. At 96 hours post-infection, cell monolayers were subjected to crystal violet staining (0.1% crystal violet in 20% ethanol), and the absorbance of dried plates at 560 nm determined. Virus-induced cytopathicity was then calculated according to the formula [% rel. CPE=100-(experimental-minimum)/(maximum-minimum)*100], with minimum referring to infected, vehicle-treated wells and maximum to mock-infected wells.

The nature of data set [4]: MTT cytotoxicity. It counts as cell-based. To be noted: African green monkey, Vero cells; averages of at least three experiments; highest concentration assessed 75 μM.
Data set [5] deals with MV-Alaska. The data set can be described thus: Virus yield (virus titer) reduction assay. Format: cell-based, Measles virus (MeV). The conditions noted are these: Measles morbillivirus.
Data set [6] has as its system Vero cells. The experiment in a line: MTT cytotoxicity. Format: cell-based. The conditions noted are these: averages of at least three experiments; highest concentration assessed 75 μM.
Setting [7] is: Sprague-Dawley, plasma, oral 10 mg/kg.
The mark [8] stands for this setting: Sprague-Dawley, plasma, oral 50 mg/kg.
The mark [9] stands for this setting: Table 1, piperidine series, read-out: EC50 (μM) (MV-Alaska) (CPE inhib.).
Setting [10] is: Table 3, averages of four experiments, concentration range 2.3-75 μM, read-out: EC50 (μM) (MV-Alaska) CPE inhibition.
Setting [11] is: MV-Alaska, read-out: EC50 in the virus titer reduction assay.
Where [12] appears, read: averages of two to four experiments ± SEM, highest concentration assessed 1 μM, read-out: EC50 (μM) (MV-Alaska) virus titer reduction.
Where [13] appears, read: Table 2, phenyl and acyclic series, read-out: EC50 (μM) (MV-Alaska) (CPE inhibition).

In brackets after ≈: the same amount, converted by molar mass. Read-outs that look alike come from different tables or passages of the source.

For orientation: AUC(0-inf) means the area under the concentration-time curve extrapolated to infinity. A low value points to less exposure. As usually defined, the Cmax is the peak of the concentration-time curve. A word on the Tmax: it is the time at which the peak concentration occurs. Usually bioavailability stands for dose-corrected exposure relative to a reference, in per cent. Broadly, the EC50 is the concentration needed to bring the measured effect to its halfway point. The CC50 is the concentration at which the toxic effect on the cells reaches its halfway point. What is called aqueous solubility is how much of the substance goes into solution per volume. High values mean a readily soluble substance, low ones a poorly soluble substance.

For the compound `Cn1nc(C(F)(F)F)cc1C(=O)Nc1ccc(S(=O)(=O)N2CCCCC2CCN2CCOCC2)cc1` (single isomer, unassigned) [Compound 2o, 1-methyl-N-(4-((2-(2-morpholinoethyl)piperidin-1-yl)sulfonyl)phenyl)-3-(trifluoromethyl)-pyrazole-5-carboxamide], the solubility was 60 µg/mL (≈ 113 µM) in data set [1] (Nephelometer, read-out: Aqueous solubility (μg/ml) Test) and about 60 µg/mL (≈ 113 µM) in data set [1] (nephelometry, read-out: aqueous solubility). Further, the AUC(0-inf) in data set [2] (setting [7]) worked out at 818 ng·h/mL; in data set [2] (setting [8]) it was 7860 ng·h/mL. Also, the AUC (0-t) stood at 683 ng·h/mL in data set [2] (Sprague-Dawley, plasma, oral 10 mg/kg, read-out: AUC (0-t)) and 3520 ng·h/mL in data set [2] (Sprague-Dawley, plasma, oral 50 mg/kg, read-out: AUC (0-t)). The Cmax in data set [2] (Sprague-Dawley, plasma, oral 10 mg/kg, read-out: Cmax) was 195 ng/mL; in data set [2] (Sprague-Dawley, plasma, oral 50 mg/kg, read-out: Cmax), 823 ng/mL. For the same compound, the Tmax was found to be 1.1 h in data set [2] (Sprague-Dawley, plasma, oral 10 mg/kg, read-out: Tmax) and 1.5 h in data set [2] (Sprague-Dawley, plasma, oral 50 mg/kg, read-out: Tmax). Further, the half-life in data set [2] (setting [7]) was 2.2 h; in data set [2] (setting [8]), 6.5 h. The bioavailability in data set [2] (Sprague-Dawley, plasma, oral, 2 mg/kg i.v. and 10 mg/kg p.o., read-out: oral bioavailability (F)) turned out to be 39%. Also, in data set [2] (p.o.), the “exposure (AUC/Cmax) increase in rat relative to AS-136a” value is listed as 10 fold. Besides, in data set [2] (p.o.), the dose proportionality entry is “near dose proportionality”. Moreover, the EC50 in data set [3] (setting [9]) turned out to be 4.5 µM; in data set [3] (setting [10]), 4.5 µM; in data set [5] (setting [11]), 0.02 µM; in data set [5] (setting [12]), 0.02 µM. This compound came in with a CC50 in data set [4] of over 75 µM.
For the compound `Cn1nc(C(F)(F)F)cc1C(=O)Nc1ccc(S(=O)(=O)N2CCCCC2)cc1` [AS-136a, 1-methyl-N-(4-(piperidin-1-ylsulfonyl)phenyl)-3-(trifluoromethyl)-pyrazole-5-carboxamide, reference compound], the “aqueous solubility” value in data set [1] (nephelometry, buffer pH=7.4) worked out at 15.0 µg/mL (≈ 36 µM). Also, in data set [2] (oral 10 mg/kg), the “AUC (0-t)” value turned out to be 132 ng·h/mL, the “AUC (0-∞)” value came out at 513 ng·h/mL, the Cmax is given as 26.9 ng/mL and the time of peak concentration (Tmax) stood at 2.5 h. This compound also had a T½ in data set [2] (oral 10 mg/kg) of 12.7 h. In data set [2] (oral 50 mg/kg), the “AUC (0-t)” value is 308 ng·h/mL, the “AUC (0-∞)” value worked out at 483 ng·h/mL, the Cmax is 72.2 ng/mL and the Tmax was 2.7 h. The same compound yielded a T½ in data set [2] (oral 50 mg/kg) of 3.7 h. In data set [6], the CC50 is over 75 µM. The EC50 in data set [5] (setting [12]) was 0.014 µM.
Turning to `Cn1nc(C(F)(F)F)cc1C(=O)Nc1ccc(S(=O)(=O)N2CCCCC2CO)cc1` (centres unmarked) [Compound 2a], in data set [1] (Nephelometer, buffer pH=7.4), the “Aqueous solubility (μg/ml) Test” value was 61 µg/mL. In addition, the figures for the EC50 in data set [3] (setting [9]), in data set [3] (setting [10]) and in data set [5] (setting [12]) were 2.8 µM, 2.3 µM and 0.85 ± 0.05 µM, respectively. In data set [6], this compound yielded a CC50 of over 75 µM.
Take `Cn1nc(C(F)(F)F)cc1C(=O)Nc1ccc(S(=O)(=O)N2CCCCC2CCO)cc1` (centres unmarked) [Compound 2k, N-(4-((2-(2-hydroxyethyl)piperidin-1-yl)sulfonyl)phenyl)-1-methyl-3-(trifluoromethyl)-pyrazole-5-carboxamide]: in data set [1] (Nephelometer, buffer pH=7.4), the “Aqueous solubility (μg/ml) Test” value came out at 62 µg/mL. In addition, in data set [2] (oral 10 mg/kg), the “AUC (0-t)” value was found to be 56.3 ng·h/mL, the “AUC (0-∞)” value is 56.8 ng·h/mL, the Cmax was 19.8 ng/mL and the Tmax worked out at 1 h. For the same compound, the T½ in data set [2] (oral 10 mg/kg) is 0.8 h. Further, in data set [2] (oral 50 mg/kg), the “AUC (0-t)” value was 754 ng·h/mL, the “AUC (0-∞)” value came to 973 ng·h/mL, the Cmax is reported as 184 ng/mL and the Tmax turned out to be 0.5 h. Besides, in data set [2] (oral 50 mg/kg), the T½ is 2.7 h. The dose proportionality entry in data set [2] (p.o.) is “non-proportionality”. In addition, the EC50 in data set [3] (setting [10]) was 2.7 µM. In addition, the EC50 in data set [3] (MV-Alaska, read-out: EC50, CPE assay) is 2.7 µM. Further, in data set [6], the CC50 was over 75 µM. Further, the EC50 in data set [5] (setting [11]) was determined as 0.06 µM. Further, in data set [5] (setting [12]), the EC50 is 0.06 µM.
Consider `Cn1nc(C(F)(F)F)cc1C(=O)Nc1ccc(S(=O)(=O)c2ccccc2)cc1` [Compound 3a, 1-methyl-N-(4-(phenylsulfonyl)phenyl)-3-(trifluoromethyl)-pyrazole-5-carboxamide], for which, in data set [1] (Nephelometer, buffer pH=7.4), the “Aqueous solubility (μg/ml) Test” value was found to be 22 µg/mL. The EC50 in data set [3] (setting [13]) turned out to be 2.8 µM; in data set [5] (setting [12]), 0.02 µM. This compound also had a CC50 in data set [6] of over 75 µM.
Take `Cn1nc(C(F)(F)F)cc1C(=O)Nc1ccc(S(=O)(=O)c2ccccc2O)cc1` [Compound 3c, N-(4-((2-hydroxyphenyl)sulfonyl)phenyl)-1-methyl-3-(trifluoromethyl)-pyrazole-5-carboxamide]: the “Aqueous solubility (μg/ml) Test” value in data set [1] (Nephelometer, buffer pH=7.4) was found to be 67 µg/mL. The EC50 in data set [3] (setting [13]) was determined as 4.5 µM. Further, the CC50 in data set [4] is at least 75 µM.
